Data taken from ChEMBL document CHEMBL5649166, “RIP3 induces apoptosis independent of pronecrotic kinase activity” (Mol Cell, 2014).

How the values were obtained:
[1] = molecular target: Angiopoietin-1 receptor (Homo sapiens) (UniProt Q02763); assay: Inhibition of human TIE2/TEK using poly[Glu:Tyr] (4:1) as substrate at 1 uM in presence of 32P-ATP by Hotspot assay relative to control; values are per cent of control
[2] = molecular target: Calcium/calmodulin-dependent protein kinase type 1G (Homo sapiens) (UniProt Q96NX5); assay: Inhibition of human CAMK1g using KKALRRQETVDAL as substrate at 1 uM in presence of 32P-ATP by Hotspot assay relative to control; values are per cent of control
[3] = molecular target: Fibroblast growth factor receptor 3 (Homo sapiens) (UniProt P22607); assay: Inhibition of human FGFR3 using poly[Glu:Tyr] (4:1) as substrate at 1 uM in presence of 32P-ATP by Hotspot assay relative to control; values are per cent of control
Chain of Fibroblast growth factor receptor 3 (Homo sapiens) (P22607 23-806 limits assumed): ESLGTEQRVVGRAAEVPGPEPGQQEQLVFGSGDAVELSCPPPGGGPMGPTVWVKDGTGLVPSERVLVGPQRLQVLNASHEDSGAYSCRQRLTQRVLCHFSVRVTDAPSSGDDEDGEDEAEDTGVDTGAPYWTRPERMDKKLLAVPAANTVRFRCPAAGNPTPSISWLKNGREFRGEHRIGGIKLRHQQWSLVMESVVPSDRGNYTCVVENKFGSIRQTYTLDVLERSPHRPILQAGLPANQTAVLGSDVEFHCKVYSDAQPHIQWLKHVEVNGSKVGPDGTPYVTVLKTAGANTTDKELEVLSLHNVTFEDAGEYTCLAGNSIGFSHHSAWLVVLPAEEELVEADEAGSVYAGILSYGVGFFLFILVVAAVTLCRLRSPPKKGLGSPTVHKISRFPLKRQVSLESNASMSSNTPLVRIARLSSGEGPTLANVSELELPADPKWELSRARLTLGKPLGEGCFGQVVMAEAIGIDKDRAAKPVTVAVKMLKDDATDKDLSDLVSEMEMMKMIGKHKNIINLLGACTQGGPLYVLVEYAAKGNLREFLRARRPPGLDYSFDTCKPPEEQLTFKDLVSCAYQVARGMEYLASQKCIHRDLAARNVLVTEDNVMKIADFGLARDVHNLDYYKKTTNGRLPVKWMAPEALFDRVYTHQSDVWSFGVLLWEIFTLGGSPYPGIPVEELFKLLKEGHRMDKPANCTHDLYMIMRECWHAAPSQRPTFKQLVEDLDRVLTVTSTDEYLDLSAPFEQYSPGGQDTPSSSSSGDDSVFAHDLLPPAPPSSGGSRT

MEF = assay: Induction of apoptosis in RIP3-/- MEF cells transfected with human RIP3 incubated for 18 hrs by Cell Titer-Glo luminescent cell viability assay; assay type: toxicity, cell-based; settings: mouse
[4] = molecular target: Glycogen synthase kinase-3 alpha (Homo sapiens) (UniProt P49840); assay: Inhibition of human GSK3a using YRRAAVPPSPSLSRHSSPHQ(pS)EDEEE as substrate at 1 uM in presence of 32P-ATP by Hotspot assay relative to control; values are per cent of control
Chain of Glycogen synthase kinase-3 alpha (Homo sapiens) (P49840 2-483 limits assumed): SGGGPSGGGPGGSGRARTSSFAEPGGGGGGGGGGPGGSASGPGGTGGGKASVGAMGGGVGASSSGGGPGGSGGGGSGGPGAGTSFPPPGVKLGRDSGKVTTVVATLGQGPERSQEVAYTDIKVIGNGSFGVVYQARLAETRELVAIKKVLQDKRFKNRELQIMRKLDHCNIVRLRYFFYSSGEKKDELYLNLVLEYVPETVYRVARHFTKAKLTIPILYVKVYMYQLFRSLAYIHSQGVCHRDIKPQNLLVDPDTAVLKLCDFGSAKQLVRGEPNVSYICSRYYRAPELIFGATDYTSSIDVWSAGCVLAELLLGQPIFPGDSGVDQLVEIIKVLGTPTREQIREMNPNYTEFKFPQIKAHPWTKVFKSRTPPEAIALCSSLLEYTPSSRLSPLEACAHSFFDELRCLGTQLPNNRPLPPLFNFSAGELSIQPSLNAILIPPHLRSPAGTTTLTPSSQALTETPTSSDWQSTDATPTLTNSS

[5] = molecular target: T1, Serine/threonine-protein kinase haspin (Homo sapiens) (UniProt Q8TF76); assay: Inhibition of human Haspin using histone H3 as substrate at 1 uM in presence of 32P-ATP by Hotspot assay relative to control; values are per cent of control
T1 sequence (whole entry): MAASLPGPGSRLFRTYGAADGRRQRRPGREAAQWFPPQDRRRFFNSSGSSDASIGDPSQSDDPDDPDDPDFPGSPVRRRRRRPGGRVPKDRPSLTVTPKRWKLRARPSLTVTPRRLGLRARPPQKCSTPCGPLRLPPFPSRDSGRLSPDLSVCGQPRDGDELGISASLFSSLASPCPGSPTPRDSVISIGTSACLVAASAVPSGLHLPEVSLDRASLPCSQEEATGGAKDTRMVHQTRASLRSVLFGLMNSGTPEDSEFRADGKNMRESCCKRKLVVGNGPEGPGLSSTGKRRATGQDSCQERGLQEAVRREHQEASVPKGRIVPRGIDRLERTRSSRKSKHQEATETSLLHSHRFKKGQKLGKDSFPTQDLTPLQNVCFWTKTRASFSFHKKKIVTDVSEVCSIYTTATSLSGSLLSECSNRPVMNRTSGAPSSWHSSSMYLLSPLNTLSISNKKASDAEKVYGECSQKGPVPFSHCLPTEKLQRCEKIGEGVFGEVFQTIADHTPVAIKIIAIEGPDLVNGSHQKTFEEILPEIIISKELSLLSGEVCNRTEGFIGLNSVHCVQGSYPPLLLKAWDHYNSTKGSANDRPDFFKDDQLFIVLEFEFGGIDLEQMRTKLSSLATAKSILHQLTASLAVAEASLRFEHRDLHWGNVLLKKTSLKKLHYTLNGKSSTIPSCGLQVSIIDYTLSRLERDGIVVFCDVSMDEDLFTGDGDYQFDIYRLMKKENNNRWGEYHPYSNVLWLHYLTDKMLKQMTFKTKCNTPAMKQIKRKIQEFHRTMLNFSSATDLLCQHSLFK

[6] = molecular target: STE20-like serine/threonine-protein kinase (Homo sapiens) (UniProt Q9H2G2); assay: Residual activity of human SLK/STK2 using histone H3 as substrate at 1 uM in presence of 32P-ATP by Hotspot assay relative to control
Chain of STE20-like serine/threonine-protein kinase (Homo sapiens) (Q9H2G2 whole entry, looked up): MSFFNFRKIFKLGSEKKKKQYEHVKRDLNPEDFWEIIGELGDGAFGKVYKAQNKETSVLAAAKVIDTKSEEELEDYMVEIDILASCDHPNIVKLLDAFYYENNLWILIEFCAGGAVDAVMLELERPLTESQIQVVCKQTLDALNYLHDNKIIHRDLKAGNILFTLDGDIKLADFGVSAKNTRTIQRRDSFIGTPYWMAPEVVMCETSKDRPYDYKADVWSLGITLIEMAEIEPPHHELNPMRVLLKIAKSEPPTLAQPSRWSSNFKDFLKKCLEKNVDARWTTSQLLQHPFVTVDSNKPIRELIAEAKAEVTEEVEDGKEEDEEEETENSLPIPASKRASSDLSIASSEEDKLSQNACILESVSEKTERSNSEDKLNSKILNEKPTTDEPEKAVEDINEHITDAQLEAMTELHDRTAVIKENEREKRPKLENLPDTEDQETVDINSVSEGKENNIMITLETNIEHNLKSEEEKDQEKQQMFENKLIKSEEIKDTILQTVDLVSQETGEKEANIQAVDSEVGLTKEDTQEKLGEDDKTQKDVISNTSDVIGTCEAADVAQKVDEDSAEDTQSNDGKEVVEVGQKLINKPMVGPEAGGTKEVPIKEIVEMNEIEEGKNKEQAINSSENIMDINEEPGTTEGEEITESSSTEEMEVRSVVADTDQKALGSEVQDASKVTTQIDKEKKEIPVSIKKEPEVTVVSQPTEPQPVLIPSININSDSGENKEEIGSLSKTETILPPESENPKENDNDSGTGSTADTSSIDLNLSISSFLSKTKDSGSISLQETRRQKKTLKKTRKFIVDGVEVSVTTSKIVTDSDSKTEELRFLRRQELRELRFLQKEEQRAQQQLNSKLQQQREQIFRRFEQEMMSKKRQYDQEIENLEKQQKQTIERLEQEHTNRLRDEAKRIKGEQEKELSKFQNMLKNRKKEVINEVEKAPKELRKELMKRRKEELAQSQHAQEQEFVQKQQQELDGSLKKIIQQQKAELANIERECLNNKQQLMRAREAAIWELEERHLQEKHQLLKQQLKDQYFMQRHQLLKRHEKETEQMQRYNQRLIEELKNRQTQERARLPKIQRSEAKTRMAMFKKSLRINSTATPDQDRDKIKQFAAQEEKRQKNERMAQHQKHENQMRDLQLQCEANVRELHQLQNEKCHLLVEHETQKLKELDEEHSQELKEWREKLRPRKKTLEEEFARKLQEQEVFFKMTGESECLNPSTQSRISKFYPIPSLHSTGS

[7] = molecular target: Protein-tyrosine kinase 6 (Homo sapiens) (UniProt Q13882); assay: Inhibition of human BRK using poly[Glu:Tyr] (4:1) as substrate at 1 uM in presence of 32P-ATP by Hotspot assay relative to control; values are per cent of control
Chain of Protein-tyrosine kinase 6 (Homo sapiens) (Q13882 whole entry, looked up): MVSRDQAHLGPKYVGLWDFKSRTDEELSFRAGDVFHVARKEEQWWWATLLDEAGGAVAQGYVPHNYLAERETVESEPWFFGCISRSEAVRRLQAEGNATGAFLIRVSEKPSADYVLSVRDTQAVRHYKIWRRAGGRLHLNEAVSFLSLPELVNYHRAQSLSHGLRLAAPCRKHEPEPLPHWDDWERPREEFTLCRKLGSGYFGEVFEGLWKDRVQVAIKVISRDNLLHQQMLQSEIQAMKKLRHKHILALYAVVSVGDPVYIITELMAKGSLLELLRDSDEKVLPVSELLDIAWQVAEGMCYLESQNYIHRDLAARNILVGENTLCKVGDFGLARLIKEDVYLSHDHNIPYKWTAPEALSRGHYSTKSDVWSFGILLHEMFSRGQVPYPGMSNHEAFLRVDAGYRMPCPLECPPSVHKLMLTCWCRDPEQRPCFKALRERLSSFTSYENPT

[8] = molecular target: T2, NUAK family SNF1-like kinase 1 (Homo sapiens) (UniProt O60285); assay: Inhibition of human ARK5/NUAK1 using KKKVSRSGLYRSPSMPENLNRPR as substrate at 1 uM in presence of 32P-ATP by Hotspot assay relative to control; values are per cent of control
T2 sequence (whole entry): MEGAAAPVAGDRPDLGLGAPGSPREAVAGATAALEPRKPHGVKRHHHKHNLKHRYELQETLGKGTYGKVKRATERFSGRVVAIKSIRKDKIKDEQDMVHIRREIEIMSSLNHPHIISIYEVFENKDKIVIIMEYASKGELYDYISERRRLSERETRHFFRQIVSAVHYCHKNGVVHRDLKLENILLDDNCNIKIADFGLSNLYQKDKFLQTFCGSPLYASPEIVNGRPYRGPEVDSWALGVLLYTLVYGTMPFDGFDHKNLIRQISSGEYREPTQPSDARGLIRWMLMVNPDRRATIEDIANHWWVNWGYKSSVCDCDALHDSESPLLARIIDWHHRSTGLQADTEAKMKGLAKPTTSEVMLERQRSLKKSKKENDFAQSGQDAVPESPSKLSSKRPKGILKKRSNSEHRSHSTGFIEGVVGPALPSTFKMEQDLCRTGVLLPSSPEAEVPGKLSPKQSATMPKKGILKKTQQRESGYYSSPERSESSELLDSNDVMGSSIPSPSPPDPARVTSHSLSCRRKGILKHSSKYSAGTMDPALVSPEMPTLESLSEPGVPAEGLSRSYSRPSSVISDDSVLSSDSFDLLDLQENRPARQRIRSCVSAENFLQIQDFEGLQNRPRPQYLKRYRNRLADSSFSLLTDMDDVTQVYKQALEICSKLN

[9] = molecular target: Serine/threonine-protein kinase SIK2 (Homo sapiens) (UniProt Q9H0K1); assay: Inhibition of human SIK2 using AMARAASAAALARRR as substrate at 1 uM in presence of 32P-ATP by Hotspot assay relative to control
[10] = molecular target: Tyrosine-protein kinase Yes (Homo sapiens) (UniProt P07947); assay: Inhibition of human YES/YES1 using poly[Glu:Tyr] (4:1) as substrate at 1 uM in presence of 32P-ATP by Hotspot assay relative to control; values are per cent of control
Chain of Tyrosine-protein kinase Yes (Homo sapiens) (P07947 2-543 limits assumed): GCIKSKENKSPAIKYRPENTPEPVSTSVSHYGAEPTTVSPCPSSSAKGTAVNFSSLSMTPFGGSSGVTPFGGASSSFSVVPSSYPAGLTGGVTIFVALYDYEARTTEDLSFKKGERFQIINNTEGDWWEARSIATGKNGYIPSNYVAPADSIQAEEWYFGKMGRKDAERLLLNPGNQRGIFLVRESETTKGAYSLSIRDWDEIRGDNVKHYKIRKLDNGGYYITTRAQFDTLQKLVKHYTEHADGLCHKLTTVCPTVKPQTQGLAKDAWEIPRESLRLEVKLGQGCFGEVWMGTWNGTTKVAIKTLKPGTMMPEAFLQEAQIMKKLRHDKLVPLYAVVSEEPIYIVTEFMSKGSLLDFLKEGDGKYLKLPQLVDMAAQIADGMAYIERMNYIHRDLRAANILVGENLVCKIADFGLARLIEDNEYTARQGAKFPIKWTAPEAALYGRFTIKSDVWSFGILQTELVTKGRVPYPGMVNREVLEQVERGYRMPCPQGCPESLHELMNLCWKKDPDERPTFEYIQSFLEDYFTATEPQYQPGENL

Chain of Angiopoietin-1 receptor (Homo sapiens) (Q02763 whole entry): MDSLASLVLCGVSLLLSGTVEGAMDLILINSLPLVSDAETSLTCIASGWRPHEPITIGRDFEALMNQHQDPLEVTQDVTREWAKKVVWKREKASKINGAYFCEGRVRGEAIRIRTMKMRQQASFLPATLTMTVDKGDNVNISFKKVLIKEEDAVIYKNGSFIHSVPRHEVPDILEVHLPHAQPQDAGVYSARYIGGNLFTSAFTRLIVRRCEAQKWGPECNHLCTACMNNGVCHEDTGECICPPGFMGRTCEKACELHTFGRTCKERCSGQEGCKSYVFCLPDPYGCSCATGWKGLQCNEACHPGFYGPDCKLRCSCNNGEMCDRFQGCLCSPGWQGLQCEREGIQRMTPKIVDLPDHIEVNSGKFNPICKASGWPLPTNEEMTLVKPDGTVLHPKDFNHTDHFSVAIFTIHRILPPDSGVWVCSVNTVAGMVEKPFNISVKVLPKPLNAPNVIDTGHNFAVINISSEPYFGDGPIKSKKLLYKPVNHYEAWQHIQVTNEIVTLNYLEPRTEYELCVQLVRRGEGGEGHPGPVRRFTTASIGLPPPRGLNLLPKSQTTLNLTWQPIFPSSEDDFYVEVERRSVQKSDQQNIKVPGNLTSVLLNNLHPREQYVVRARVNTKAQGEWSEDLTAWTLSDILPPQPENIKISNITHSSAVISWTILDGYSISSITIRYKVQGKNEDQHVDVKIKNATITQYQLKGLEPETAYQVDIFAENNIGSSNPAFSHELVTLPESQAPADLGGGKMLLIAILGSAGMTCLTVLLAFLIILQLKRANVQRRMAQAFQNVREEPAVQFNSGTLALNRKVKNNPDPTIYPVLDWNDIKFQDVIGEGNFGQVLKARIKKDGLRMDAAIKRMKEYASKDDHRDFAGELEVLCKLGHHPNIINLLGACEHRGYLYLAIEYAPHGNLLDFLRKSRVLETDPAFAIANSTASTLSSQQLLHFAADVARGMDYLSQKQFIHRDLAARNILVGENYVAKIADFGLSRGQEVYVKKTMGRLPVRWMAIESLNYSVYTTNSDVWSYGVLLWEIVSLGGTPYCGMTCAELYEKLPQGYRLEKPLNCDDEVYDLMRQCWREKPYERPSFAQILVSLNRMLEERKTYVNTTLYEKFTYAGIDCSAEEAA

Structure (SMILES) | residual activity [1] | residual activity [2] | residual activity [3] | Activity (MEF) | residual activity [4] | residual activity [5] | residual activity [6] | residual activity [7] | residual activity [8] | inhibition [9] | residual activity [10]
Cc1cc(-c2cnc(N)c3c(-c4ccc5scnc5c4)csc23)n(C)n1 | 94.2% | 90.9% | 65% | Toxic | 99.8% | 95.5% | 94.6% | 8.67% | 98.5% | 92% | 17%
CC(C)S(=O)(=O)c1ccc2nccc(Nc3ccc4scnc4c3)c2c1 | 98.7% | 85.6% | 94.3% | Toxic | 92.4% | 86.2% | 87.8% | 10.8% | 98.4% | 93.1% | 20.1%
CNC(=O)c1ccc2c(c1)ncn2-c1ccc(CC(=O)OC(C)(C)C)cc1 | 87.2% | 94.2% | 65.3% | Toxic | 99.8% | 98.1% | 92.1% | 29.9% | 91.7% | 93.2% | 39.6%
